According to patent US10221163B2 (priority 2015, dated 2019):
Read-outs that look alike come from different tables or passages of the source.

How the values were obtained:
[1] = test system: Pseudomonas aeruginosa efflux+ (MB9798), IMP-1; type: cell-based; design: Concentration of metallo-β-lactamase inhibitor which restores susceptibility of efflux + (MB9798) strain to imipenem: unit not given here; details: C, D serine β-lactamase inhibitor closely related to relebactam; for P. aeruginosa expressing IMP-1, efflux + (MB9798) MITC95: concentration restoring susceptibility to imipenem at 2 μg/mL in the presence of a class A; for Concentration of metallo-β-lactamase inhibitor which restores susceptibility of efflux + (MB9798) strain to imipenem: imipenem at 2 μg/mL, in the presence of a class A
How it was run: (§1)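 P. aeruginosa PAO1-derived IMP-1 strains, efflux+ MB9798 and efflux− MB9799, tested by standard microbroth MIC with imipenem and/or ceftazidime fixed, usually at CLSI breakpoint, plus fixed class A/C β-lactamase inhibitor against AmpC. Inhibitor titrated; concentration restoring susceptibility recorded; MB9798/MB9799 fold difference indicates efflux.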

[2] = test system: Klebsiella pneumoniae expressing VIM-1 (IHMA599644); type: cell-based; details: for Klebsiella pneumoniae expressing VIM-1 (IHMA599644) MITC95: with imipenem 1 μg/ml, 95% inhibition of bacterial growth; for Klebsiella pneumoniae MITC95: VIM-1 strain IHMA599644, with imipenem 1 μg/ml, 95% inhibition of growth
How it was run: (§2)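 Imipenem 1 μg/ml + inhibitor; MBL-expressing clinical strains in 1.1×CAMHB, inoculum from saline suspension diluted 1:100; 35° C, 22–24 h; absorbance read-out.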

[3] = test system: Serratia marcescens expressing IMP-1 (CL5741); type: cell-based; details: for Serratia marcescens expressing IMP-1 (CL5741) MITC95: with imipenem 1 μg/ml, 95% inhibition of bacterial growth; for Serratia marcescens MITC95: IMP-1 strain CL5741, with imipenem 1 μg/ml, 95% inhibition of growth
How it was run: as §2

[4] = test system: Escherichia coli expressing NDM-1 (CLB30005, CLB30016); type: cell-based; details: with imipenem 1 μg/ml; for Escherichia coli expressing NDM-1 (CLB30016) MITC95: 95% inhibition of bacterial growth; for Escherichia coli MITC95: NDM-1 strain, 95% inhibition of growth
How it was run: as §2

[5] = test system: Pseudomonas aeruginosa efflux− (MB9799), IMP-1; type: cell-based; details: C, D serine β-lactamase inhibitor closely related to relebactam; for P. aeruginosa expressing IMP-1, efflux − (MB9799) MITC95: concentration restoring susceptibility to imipenem at 2 μg/mL in the presence of a class A; for Concentration of metallo-β-lactamase inhibitor which restores susceptibility of efflux − (MB9799) strain to imipenem: imipenem at 2 μg/mL, in the presence of a class A
How it was run: as §1

NDM-1 = NDM-1 (Klebsiella pneumoniae, UniProt C7C422); experiment: biochemical; type: biochemical; details: fluorescence assay, CCF2-FA substrate, 1 pM enzyme, 2 hours at 25° C.; read-out: NDM-1 IC50
How it was run: (§3)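 Inhibitor was mixed with the metallo-β-lactamase and CCF2-FA. After 2 hours at 25° C, fluorescence of the coumarin–fluorescein cephalosporin substrate was read. IC50 was calculated with a 4-parameter fit.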

IMP-1 = IMP-1 (Serratia marcescens, UniProt P52699); experiment: biochemical; type: biochemical; details: CCF2-FA substrate, 2 pM enzyme, 2 hours at 25° C.
How it was run: as §3

VIM-1 = VIM-1 (Pseudomonas aeruginosa (strain ATCC 15692 / DSM 22644 / CIP 104116 / JCM 14847 / LMG 12228 / 1C / PRS 101 / PAO1), UniProt A0A0F7KYQ8); experiment: biochemical; details: CCF2-FA substrate, 30 pM enzyme, 2 hours at 25° C.
How it was run: as §3

[6] = test system: Pseudomonas aeruginosa MB9798 vs MB9799
How it was run: as §1

[7] = fluorescence assay, read-out: IMP-1 IC50
[8] = fluorescence assay, read-out: VIM-1 IC50
[9] = ratio MITC95 PA_9798/MITC95 PA_9799
[10] = fold difference between efflux+ (MB9798) and efflux− (MB9799) strains, imipenem at 2 μg/mL

Chain of NDM-1 (C7C422 whole entry, looked up, species assumed): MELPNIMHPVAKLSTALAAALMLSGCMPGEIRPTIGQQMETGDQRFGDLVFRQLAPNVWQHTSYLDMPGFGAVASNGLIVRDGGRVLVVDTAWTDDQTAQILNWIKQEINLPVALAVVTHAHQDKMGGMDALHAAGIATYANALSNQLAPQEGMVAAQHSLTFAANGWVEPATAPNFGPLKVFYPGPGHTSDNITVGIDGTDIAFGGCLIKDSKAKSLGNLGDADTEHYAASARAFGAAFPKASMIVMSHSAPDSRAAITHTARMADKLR
Chain of IMP-1 (P52699 whole entry, looked up, species assumed): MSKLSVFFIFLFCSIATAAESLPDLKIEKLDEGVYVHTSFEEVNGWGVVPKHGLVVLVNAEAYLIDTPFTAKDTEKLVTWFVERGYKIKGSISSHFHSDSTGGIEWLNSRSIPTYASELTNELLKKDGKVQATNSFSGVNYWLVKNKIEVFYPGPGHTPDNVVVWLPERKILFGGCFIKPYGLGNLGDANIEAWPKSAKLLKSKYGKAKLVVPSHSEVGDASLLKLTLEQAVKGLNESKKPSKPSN

CN(C)CCNS(=O)(=O)c1ccc(-c2cccc3sc(N)nc23)c(-c2nnn[nH]2)c1S(N)(=O)=O [Example 22, 4-(2-amino-1,3-benzothiazol-4-yl)-N^1-[2-(dimethylamino)ethyl]-3-(1H-tetrazol-5-yl)benzene-1,2-disulfonamide]
P. aeruginosa expressing IMP-1, efflux + (MB9798) MITC95 [1]: 1.563 µM
Klebsiella pneumoniae expressing VIM-1 (IHMA599644) MITC95 [2]: 3.125 µM
Serratia marcescens expressing IMP-1 (CL5741) MITC95 [3]: 3.125 µM
Escherichia coli expressing NDM-1 (CLB30016) MITC95 [4]: 6.25 µM
P. aeruginosa expressing IMP-1, efflux − (MB9799) MITC95 [5]: 1.563 µM
IC50 (NDM-1): 0.0348 nM
IC50 (IMP-1; [7]): 0.413 nM
IC50 (VIM-1; [8]): 0.233 nM
Efflux ratio [6, 9]: 1.00

C[N+](C)(C)CCNS(=O)(=O)c1ccc(-c2cccc3sc(N)nc23)c(-c2nnn[nH]2)c1S(N)(=O)=O.O=C([O-])C(F)(F)F [Example 391, 2-({[4-(2-amino-1,3-benzothiazol-4-yl)-2-sulfamoyl-3-(1H-tetrazol-5-yl)phenyl]sulfonyl}amino)-N,N,N-trimethylethanaminium trifluoroacetate]
Concentration of metallo-β-lactamase inhibitor which restores susceptibility of efflux + (MB9798) strain to imipenem [1]: 1.563
Klebsiella pneumoniae MITC95 [2]: 6.25 µM
Serratia marcescens MITC95 [3]: 3.125 µM
Escherichia coli MITC95 [4]: 3.125 µM
Concentration of metallo-β-lactamase inhibitor which restores susceptibility of efflux − (MB9799) strain to imipenem [5]: 1.563
IC50 (NDM-1): 0.028 nM
IC50 (IMP-1; IMP-1 IC50, fluorescence assay): 0.209 nM
IC50 (VIM-1; [8]): 0.0965 nM
Efflux ratio [6, 10]: 1.00

Nc1nc2c(-c3ccc(S(=O)(=O)NC[C@]4(N)CCNC4)c(S(N)(=O)=O)c3-c3nn[nH]n3)cccc2s1 [Example 366, (S)-4-(2-aminobenzo[d]thiazol-4-yl)-N^1-((3-aminopyrrolidin-3-yl)methyl)-3-(2H-tetrazol-5-yl) benzene-1,2-disulfonamide]
P. aeruginosa expressing IMP-1, efflux + (MB9798) MITC95 [1]: 0.7813 µM
Klebsiella pneumoniae MITC95 [2]: 3.125 µM
Serratia marcescens MITC95 [3]: 1.563 µM
Escherichia coli MITC95 [4]: 0.7813 µM
P. aeruginosa expressing IMP-1, efflux − (MB9799) MITC95 [5]: 0.7813 µM
IC50 (NDM-1): 0.0225 nM
IC50 (IMP-1; [7]): 0.0753 nM
IC50 (VIM-1; VIM-1 IC50, fluorescence assay): 0.105 nM
Efflux ratio [6, 9]: 1.00

NS(=O)(=O)c1c(S(=O)(=O)N[C@@H]2CCNC2)ccc(-c2cccc3nc(O)[nH]c23)c1-c1nnn[nH]1 [Example 130, (R)-4-(2-hydroxy-1H-benzo[d]imidazol-7-yl)-N1-(pyrrolidin-3-yl)-3-(1H-tetrazol-5-yl)benzene-1,2-disulfonamide]
P. aeruginosa expressing IMP-1, efflux + (MB9798) MITC95 [1]: 0.7813 µM
Klebsiella pneumoniae expressing VIM-1 (IHMA599644) MITC95 [2]: 3.125 µM
Serratia marcescens expressing IMP-1 (CL5741) MITC95 [3]: 1.563 µM
Escherichia coli expressing NDM-1 (CLB30016) MITC95 [4]: 1.563 µM
P. aeruginosa expressing IMP-1, efflux − (MB9799) MITC95 [5]: 1.563 µM
IC50 (NDM-1): 0.0529 nM
IC50 (IMP-1; [7]): 0.684 nM
IC50 (VIM-1; [8]): 0.151 nM
Efflux ratio [6, 9]: 0.50

NCC(CO)(CO)NS(=O)(=O)c1ccc(-c2cccc3[nH]c(N)nc23)c(-c2nn[nH]n2)c1S(N)(=O)=O [Example 247, 4-(2-amino-1H-benzo[d]imidazol-4-yl)-N-1-(1-amino-3-hydroxy-2-(hydroxymethyl)propan-2-yl)-3-(2H-tetrazol-5-yl)benzene-1,2-disulfonamide]
P. aeruginosa expressing IMP-1, efflux + (MB9798) MITC95 [1]: 1.563 µM
Klebsiella pneumoniae MITC95 [2]: 3.125 µM
Serratia marcescens MITC95 [3]: 1.563 µM
Escherichia coli MITC95 [4]: 0.7813 µM
P. aeruginosa expressing IMP-1, efflux − (MB9799) MITC95 [5]: 0.7813 µM
IC50 (NDM-1): 0.0331 nM
IC50 (IMP-1; [7]): 0.504 nM
IC50 (VIM-1; [8]): 0.149 nM
Efflux ratio [6, 9]: 2.00

Nc1cc(-c2ccc(S(=O)(=O)N[C@@H]3CCNC3)c(S(N)(=O)=O)c2-c2nn[nH]n2)ccn1 [Example 288, (R)-4-(2-aminopyridin-4-yl)-N1-(pyrrolidin-3-yl)-3-(2H-tetrazol-5-yl)benzene-1,2-disulfonamide]
P. aeruginosa expressing IMP-1, efflux + (MB9798) MITC95 [1]: 1.563 µM
Klebsiella pneumoniae MITC95 [2]: 1.563 µM
Serratia marcescens MITC95 [3]: 1.563 µM
Escherichia coli MITC95 [4]: 0.7813 µM
P. aeruginosa expressing IMP-1, efflux − (MB9799) MITC95 [5]: 0.7813 µM
IC50 (NDM-1): 0.0985 nM
IC50 (IMP-1; [7]): 0.462 nM
IC50 (VIM-1; [8]): 0.0781 nM
Efflux ratio [6, 9]: 2.00

Nc1nc2c(-c3ccc(S(=O)(=O)N[C@H]4CNC[C@H]4N)c(S(N)(=O)=O)c3-c3nn[nH]n3)cccc2[nH]1 [Example 241]
P. aeruginosa expressing IMP-1, efflux + (MB9798) MITC95 [1]: 0.651 µM
Klebsiella pneumoniae expressing VIM-1 (IHMA599644) MITC95 [2]: 1.302 µM
Serratia marcescens expressing IMP-1 (CL5741) MITC95 [3]: 1.042 µM
Escherichia coli expressing NDM-1 (CLB30016) MITC95 [4]: 0.5208 µM
P. aeruginosa expressing IMP-1, efflux − (MB9799) MITC95 [5]: 0.7813 µM
IC50 (NDM-1): 0.0536 nM
IC50 (IMP-1; [7]): 0.738 nM
IC50 (VIM-1; VIM-1 IC50, fluorescence assay): 0.182 nM
Efflux ratio [6, 9]: 0.83

NCc1nc2cc(-c3ccc(S(=O)(=O)NC[C@@H](O)CN)c(S(N)(=O)=O)c3-c3nn[nH]n3)ccc2s1 [Example 473, (S)-N1-(3-amino-2-hydroxypropyl)-4-(2-(aminomethyl)benzo[d]thiazol-5-yl)-3-(2H-tetrazol-5-yl)benzene-1,2-disulfonamide]
Concentration of metallo-β-lactamase inhibitor which restores susceptibility of efflux + (MB9798) strain to imipenem [1]: 0.7813
Klebsiella pneumoniae MITC95 [2]: 1.563 µM
Serratia marcescens MITC95 [3]: 1.563 µM
Escherichia coli MITC95 [4]: 0.7813 µM
Concentration of metallo-β-lactamase inhibitor which restores susceptibility of efflux − (MB9799) strain to imipenem [5]: 0.7813
IC50 (NDM-1): 0.136 nM
IC50 (IMP-1; [7]): 0.329 nM
IC50 (VIM-1; [8]): 0.109 nM
Efflux ratio [6, 10]: 1.00

Nc1nc2c(-c3ccc(S(=O)(=O)N[C@@H]4CNC[C@@H]4O)c(S(N)(=O)=O)c3-c3nnn[nH]3)cccc2[nH]1 [Example 170, 4-(2-amino-1H-benzo[d]imidazol-4-yl)-N^1-((3R,4S)-4-hydroxypyrrolidin-3-yl)-3-(1H-tetrazol-5-yl)benzene-1,2-disulfonamide]
P. aeruginosa expressing IMP-1, efflux + (MB9798) MITC95 [1]: 0.7813 µM
Klebsiella pneumoniae expressing VIM-1 (IHMA599644) MITC95 [2]: 1.563 µM
Serratia marcescens expressing IMP-1 (CL5741) MITC95 [3]: 0.7813 µM
Escherichia coli expressing NDM-1 (CLB30016) MITC95 [4]: 0.7813 µM
P. aeruginosa expressing IMP-1, efflux − (MB9799) MITC95 [5]: 0.7813 µM
IC50 (NDM-1): 0.0803 nM
IC50 (IMP-1; [7]): 1.12 nM
IC50 (VIM-1; VIM-1 IC50, fluorescence assay): 0.257 nM
Efflux ratio [6, 9]: 1.00

Nc1nc2c(-c3ccc(S(N)(=O)=O)c(S(N)(=O)=O)c3-c3nn[nH]n3)cccc2o1 [Example 4, 4-(2-aminobenzo[d]oxazol-4-yl)-3-(2H-tetrazol-5-yl)benzene-1,2-disulfonamide]
P. aeruginosa expressing IMP-1, efflux + (MB9798) MITC95 [1]: 1.563 µM
Klebsiella pneumoniae expressing VIM-1 (IHMA599644) MITC95 [2]: 3.125 µM
Serratia marcescens expressing IMP-1 (CL5741) MITC95 [3]: 1.563 µM
Escherichia coli expressing NDM-1 (CLB30016) MITC95 [4]: 3.125 µM
P. aeruginosa expressing IMP-1, efflux − (MB9799) MITC95 [5]: 1.563 µM
IC50 (NDM-1): 0.136 nM
IC50 (IMP-1; [7]): 0.354 nM
IC50 (VIM-1; [8]): 0.237 nM
Efflux ratio [6, 9]: 1.00
